Assays:
[1] = system: SH-SY5Y (neuroblastoma) cells; experiment: MTT reduction assay, SH-SY5Y cells; assay type: cell-based, human
Procedure: (§1) MCF-7 cells and SH-SY5Y cells were maintained in a culture flask (25 cm^2) with full growth medium DMEM supplemented with 10% FBS and penicillin and streptomycin (final concentration of 100 U/mL and 0.1 mg/mL, respectively) were kept in an incubator at 37 °C and 5% CO2. In the culture flask, the medium was changed at least twice a week, while trypsinization was done at least once a week. Trypsinization was made when there was more than 80% confluence of the monolayer and cell passages used were lower than 35.
Cells were given 24 h to attach before they were incubated with the compounds in the study. The cells were treated with different concentrations (1, 2.5, 5, and 10 µM) of Tacrine, MAP, and Tacrine-MAP for 24 h with a final volume per well of 200 μL of complete medium. H2O and DMSO were used in control, with the volume added being the one used for each concentration. After the period of incubation, the MTT reduction was performed in both cell lines.
The MTT assay can be used to assess the cell’s metabolic activity. […] Only viable cells can metabolize MTT, so the metabolic activity is proportional to the quantity of formazans produced). […] The absorbance was read at 570 nm in a microplate reader (BioTeK Model Synergy HT, Winooski, VT, USA). Results were expressed as percentage of control cells.

SH-SY5Y cells = experiment: Cell count analysis (Lionheart FX), SH-SY5Y cells; assay type: cell-based, human; conditions: SH-SY5Y, 1, 2.5, 5 and 10 µM, 24 h incubation, n = 1
MCF-7 cells [2] = experiment: Cell morphology visualization (phase contrast, Lionheart FX), MCF-7 cells; assay type: cell-based, human; conditions: 24 h incubation; Tacrine all concentrations tested; MAP 5, 10, 20 and 25 μM; conjugate higher concentrations
Procedure: (§2) For cytotoxicity evaluation, MCF-7 cells were seeded in 48-well plates at a density of 25 × 10^4 cells per well in a final volume of 250 µL of culture medium. Cells were given 24 h to attach before they were incubated with the compounds in the study. […] H2O and DMSO were used in control, with the volume added being the one used for each concentration.
(§3) After the treatments, cell morphology and growth were assessed by the contrast phase microscope Lionheart FX (Biotech, VT, USA) with the use of Gen5 software (Biotech, USA). The cell count of MCF-7 cells was assessed by Lionheart FX (Biotech, USA) using Gen5 software (Biotech, USA).

MCF-7 cells [3] = experiment: Analysis of drug interactions (Chou-Talalay, CompuSyn); assay type: cell-based, human; conditions: n = 3
Procedure: To quantify the interaction of Tacrine and MAP in the conjugate, the dose-effect curves were estimated by the unified theory, introduced by Chou and Talalay using CompuSyn software (ComboSyn, Inc., New York, NY, USA). The dose was plotted on the y-axis as a function of effect level (Fa) on the x-axis to assess the drugs’ behavior. Experiments were conducted in triplicate (n = 3) with three replications.

[4] = molecular target: T1, acetylcholinesterase (AChE from the electric eel) (Electrophorus electricus, UniProt O42275); experiment: AChE in vitro inhibition assay (Ellman's method); assay type: biochemical
T1 construct: purchased Sigma-Aldrich
T1 sequence (O42275 24-633): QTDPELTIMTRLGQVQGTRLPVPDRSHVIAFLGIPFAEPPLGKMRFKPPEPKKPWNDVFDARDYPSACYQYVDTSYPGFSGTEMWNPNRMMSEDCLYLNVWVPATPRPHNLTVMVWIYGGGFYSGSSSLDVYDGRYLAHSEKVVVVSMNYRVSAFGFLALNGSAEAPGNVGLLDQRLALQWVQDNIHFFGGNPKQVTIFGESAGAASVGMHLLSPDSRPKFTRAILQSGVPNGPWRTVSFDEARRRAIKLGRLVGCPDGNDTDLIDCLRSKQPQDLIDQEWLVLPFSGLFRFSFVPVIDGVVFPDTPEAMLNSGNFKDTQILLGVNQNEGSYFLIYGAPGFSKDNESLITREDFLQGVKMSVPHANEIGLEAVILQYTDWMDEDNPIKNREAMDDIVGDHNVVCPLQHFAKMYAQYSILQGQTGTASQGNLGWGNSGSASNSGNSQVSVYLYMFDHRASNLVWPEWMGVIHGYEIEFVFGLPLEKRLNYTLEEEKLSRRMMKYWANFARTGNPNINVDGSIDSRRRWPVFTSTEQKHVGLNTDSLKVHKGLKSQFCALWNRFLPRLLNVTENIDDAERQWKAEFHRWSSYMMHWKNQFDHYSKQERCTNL
Procedure: Apart from its main function, this enzyme can efficiently hydrolyze a sulfur analogue of acetylcholine–acetylthiocholine. The products of this reaction are acetate and thiocholine, with the latter reacting with the highly reactive DNTB ion, generating a 5-thio-2-nitrobenzoate anion that has a yellow color and it can be detected by measuring the increase of absorbance at 412 nm. 3 mL of assay medium (phosphate buffer pH 7.4 + 150 µL DNTB 0.01 M + 30 µL AChE 2.0 units/mL) was put into cuvettes. The positive control was incubated at 37 °C for 15 min and then was added 150 µL of substrate (acetylthiocholine 0.01 M). […] After the addition of substrate to the assay medium, it was measured the increase in absorbance at 412 nm for 30 s intervals for 5 min (300 s) at 37 °C.
The absorbance was measured in the JENWAY 6300 Spectrophotometer. All conditions were made in triplicates. The value of the initial absorbance was subtracted to the value of the absorbance at 300 s and that was considered as the biological activity.

MCF-7 cells [5] = experiment: Cell count analysis (Lionheart FX), MCF-7 cells; assay type: cell-based, human; conditions: 24 h incubation, n = 1
Procedure: as §2, §3

[6] = system: MCF-7 (breast cancer) cells; conditions: for IC50: read-out: IC50, MCF-7 cell viability, MTT, dose-response 1, 2.5, 5, 10, 20 and 25 µM, 24 h, triplicates, n = 3
Procedure: as §1, §2
The MTT assay can be used to assess the cell’s metabolic activity. MTT, a water-soluble compound, is reduced by the complex II of the mitochondrial respiratory chain to a water-insoluble blue formazan product. Only viable cells can metabolize MTT, so the metabolic activity is proportional to the quantity of formazans produced). After a 24 h incubation with the compounds in the study at 37 °C with 5% CO2, the cells were retrieved from the incubator and the medium was discarded. A previously warmed medium with MTT (0.5 mg/mL) was added (200 μL per well) and cells were maintained for 3 h at 37 °C and 5% CO2. Then the medium was aspirated again and DMSO (200 μL) was added to cause cellular lysis and solubilize the formazan crystals. The complete dissolution of the crystals was obtained by putting the plates on a shaking platform for 15 min, protected from light. The absorbance was read at 570 nm in a microplate reader (BioTeK Model Synergy HT, Winooski, VT, USA). Results were expressed as percentage of control cells.

[7] = cellular uptake kinetics; cited from earlier work
Excerpt: In view of the above, we decided to explore how the coupling of Tacrine with the cell-penetrating peptide (CPP) MAP might enhance its anti-cancer effect. CPPs are considered versatile carriers due to their unique ability to transport a wide range of molecules such as proteins, nucleic acids, contrast agents, drugs, and promote their intracellular delivery with limited toxicity. […] MAP (named after “model amphipathic peptide”) is an artificial ...

[8] = system: breast tumor cells (MCF-7); conditions: cited from earlier work
Excerpt: Drug combination is a strategy increasingly used in oncology because it allows taking advantage of the maximum therapeutic effect of two or more drugs, by combining different mechanisms of action, while reducing required doses and, consequently, side effects. Drug repurposing is another strategy that allows overcoming the disadvantages of the traditional development of novel anticancer drugs, by searching for new therapeutic uses for drugs already approved for other indications. This allows the reduction of costs related to the development of new drugs while promoting a faster route towards th ...

[9] = summary statement of the abstract

| Compound | Toxicity to SH-SY5Y cells (in words) [1, 9] | Cell count (in words) (SH-SY5Y cells) | Morphological changes of MCF-7 cells vs control (in words) (MCF-7 cells [2]) | Drug interaction of MAP and Tacrine in decreasing cell viability (MCF-7 cells [3]; higher doses) | Drug interaction of MAP and Tacrine in decreasing cell viability (MCF-7 cells [3]; lower doses of drug and peptide) | IC50 [4] [nM] | Cell count (in words) (MCF-7 cells [5]; MCF-7, 1, 2.5, 5 and 10 µM) | Cell count (in words) (MCF-7 cells [5]; MCF-7, 20 and 25 µM) | IC50 [6] [nM] | Toxicity to MCF-7 cells (in words) [6, 9] | Cellular uptake among several CPP (in words) [7] | MTT reduction compared to control (in words) ([1]; SH-SY5Y, 1, 2.5, 5 and 10 µM, 24 h incubation) | Activity on MCF-7 cells (in words) ([8]; 50 µM, alone) | Cytotoxicity against MCF-7 cells in combination with 5-FU (in words) ([8]; combination with 5-Fluorouracil) | MTT reduction compared to control (in words) ([6]; MCF-7, 1, 2.5, 5 and 10 µM, 24 h incubation) |
| --- | --- | --- | --- | --- | --- | --- | --- | --- | --- | --- | --- | --- | --- | --- | --- |
| CC(C)C[C@H](NC(=O)[C@H](C)NC(=O)[C@H](CCCCN)NC(=O)[C@H](CC(C)C)NC(=O)[C@H](C)NC(=O)[C@H](CC(C)C)NC(=O)[C@H](CCCCN)NC(=O)[C@H](CC(C)C)NC(=O)[C@H](C)NC(=O)[C@H](CC(C)C)NC(=O)[C@H](CCCCN)NC(=O)[C@@H](N)Cc1cn(CC(=O)Nc2c3c(nc4ccccc24)CCCC3)nn1)C(=O)N[C@@H](CCCCN)C(=O)N[C@@H](C)C(=O)N[C@@H](C)C(=O)N[C@@H](CC(C)C)C(=O)N[C@@H](CCCCN)C(=O)N[C@@H](CC(C)C)C(=O)N[C@@H](C)C(N)=O [MAP-Tacrine conjugate] | highly toxic | significantly decreased cell count | cell damage observed was similar to that caused by MAP alone | additive effect | synergistic effect | 6070 | significantly decreased cell count | severe drop in cell count | 2730 | highly toxic | – | – | – | – | – |
| CC(C)C[C@H](NC(=O)[C@H](C)NC(=O)[C@H](CCCCN)NC(=O)[C@H](CC(C)C)NC(=O)[C@H](C)NC(=O)[C@H](CC(C)C)NC(=O)[C@H](CCCCN)NC(=O)[C@H](CC(C)C)NC(=O)[C@H](C)NC(=O)[C@H](CC(C)C)NC(=O)[C@@H](N)CCCCN)C(=O)N[C@@H](CCCCN)C(=O)N[C@@H](C)C(=O)N[C@@H](C)C(=O)N[C@@H](CC(C)C)C(=O)N[C@@H](CCCCN)C(=O)N[C@@H](CC(C)C)C(=O)N[C@@H](C)C(N)=O [MAP] | – | – | – | – | – | – | – | – | 2720 | – | fastest cellular uptake | – | – | – | – |
| Nc1c2c(nc3ccccc13)CCCC2 [Tacrine] | – | did not affect the number of cells in culture | No significant differences in cell morphology | – | – | – | did not affect the number of cells in culture | no significant effects | – | – | – | no significant differences | antiproliferative activity | increased the cytotoxicity | no significant differences |

Source: PMC7795729 (International Journal of Molecular Sciences, 2020)
